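How tested: cells in 96-well plates exposed to compound for 48 hours at five concentrations. GI50 marks 50% less growth. Definition used: TGI = concentration required for complete inhibition of growth.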
Assays:
Assay in all cases: DTP human tumour cell line panel, 48 h
[1] = test system: 786-0 renal
[2] = test system: A498 renal
[3] = test system: A549 NSCLC
[4] = test system: ACHN renal
[5] = test system: BT-549 breast
[6] = test system: CAKI-1 renal
[7] = test system: CCRF-CEM leukemia
[8] = test system: COLO 205 colon
[9] = test system: DU-145 prostate
[10] = test system: EKVX NSCLC
[11] = test system: HCC-2998 colon
[12] = test system: HCT-116 colon
[13] = test system: HCT-15 colon
[14] = test system: HL-60(TB) leukemia
[15] = test system: HOP-62 NSCLC
[16] = test system: HOP-92 NSCLC
[17] = test system: HS 578T breast
[18] = test system: HT29 colon
[19] = test system: IGROV1 ovarian
[20] = test system: K-562 leukemia
[21] = test system: KM12 colon
[22] = test system: LOX IMVI melanoma
[23] = test system: M14 melanoma
[24] = test system: MALME-3M melanoma
[25] = test system: MCF7 breast
[26] = test system: MDA-MB-231 breast
[27] = test system: MDA-MB-435
[28] = test system: NCI-H226 lung
[29] = test system: NCI-H23 lung
[30] = test system: NCI-H460 lung
[31] = test system: NCI-H522 lung
[32] = test system: NCI/ADR-RES ovarian
[33] = test system: OVCAR-3 ovarian
[34] = test system: OVCAR-4 ovarian
[35] = test system: OVCAR-5 ovarian
[36] = test system: OVCAR-8 ovarian
[37] = test system: PC-3 prostate
[38] = test system: RPMI-8226 leukemia
[39] = test system: RXF 393 renal
[40] = test system: SF-268 CNS
[41] = test system: SF-295 CNS
[42] = test system: SF-539 CNS
[43] = test system: SK-MEL-2 melanoma
[44] = test system: SK-MEL-28 melanoma
[45] = test system: SK-MEL-5 melanoma
[46] = test system: SN12C renal
[47] = test system: SNB-19 CNS
[48] = test system: SNB-75 CNS
[49] = test system: SR leukemia
[50] = test system: SW-620 colon
[51] = test system: T-47D breast
[52] = test system: TK-10 renal
[53] = test system: U251 CNS
[54] = test system: UACC-257 melanoma
[55] = test system: UACC-62 melanoma
[56] = test system: UO-31 renal

CCc1ccc2c(c1)C(=O)c1c-2n(CCCBr)c(=O)c2cc([N+](=O)[O-])ccc12
GI50 [1]: 23.4 µM | TGI [1]: > 50 µM | GI50 [2]: > 50 µM | TGI [2]: > 50 µM | GI50 [3]: > 50 µM | TGI [3]: > 50 µM | GI50 [4]: > 50 µM | TGI [4]: > 50 µM | GI50 [5]: > 50 µM | TGI [5]: > 50 µM | GI50 [6]: > 50 µM | TGI [6]: > 50 µM | GI50 [7]: > 50 µM | TGI [7]: > 50 µM | GI50 [8]: > 50 µM | TGI [8]: > 50 µM | GI50 [9]: > 50 µM | TGI [9]: > 50 µM | GI50 [10]: > 50 µM | TGI [10]: > 50 µM | GI50 [11]: > 50 µM | TGI [11]: > 50 µM | GI50 [12]: > 50 µM | TGI [12]: > 50 µM | GI50 [13]: > 50 µM | TGI [13]: > 50 µM | GI50 [14]: > 50 µM | TGI [14]: > 50 µM | GI50 [15]: 21.3 µM | TGI [15]: > 50 µM | GI50 [16]: 16 µM | TGI [16]: > 50 µM | GI50 [17]: 18.2 µM | TGI [17]: > 50 µM | GI50 [18]: > 50 µM | TGI [18]: > 50 µM | GI50 [19]: 27.9 µM | TGI [19]: > 50 µM | GI50 [20]: > 50 µM | TGI [20]: > 50 µM | GI50 [21]: > 50 µM | TGI [21]: > 50 µM | GI50 [22]: > 50 µM | TGI [22]: > 50 µM | GI50 [23]: > 50 µM | TGI [23]: > 50 µM | GI50 [24]: 18.5 µM | TGI [24]: > 50 µM | GI50 [25]: 19.9 µM | TGI [25]: > 50 µM | GI50 [26]: 45.7 µM | TGI [26]: > 50 µM | GI50 [27]: > 50 µM | TGI [27]: > 50 µM | GI50 [28]: 27.7 µM | TGI [28]: > 50 µM | GI50 [29]: > 50 µM | TGI [29]: > 50 µM | GI50 [30]: > 50 µM | TGI [30]: > 50 µM | GI50 [31]: 45.9 µM | TGI [31]: > 50 µM | GI50 [32]: > 50 µM | TGI [32]: > 50 µM | GI50 [33]: > 50 µM | TGI [33]: > 50 µM | GI50 [34]: 48.1 µM | TGI [34]: > 50 µM | GI50 [35]: > 50 µM | TGI [35]: > 50 µM | GI50 [36]: > 50 µM | TGI [36]: > 50 µM | GI50 [37]: > 50 µM | TGI [37]: > 50 µM | GI50 [38]: > 50 µM | TGI [38]: > 50 µM | GI50 [39]: 21.8 µM | TGI [39]: > 50 µM | GI50 [40]: 15.9 µM | TGI [40]: > 50 µM | GI50 [41]: 36.5 µM | TGI [41]: > 50 µM | GI50 [42]: 28.4 µM | TGI [42]: > 50 µM | GI50 [43]: 31.9 µM | TGI [43]: > 50 µM | GI50 [44]: > 50 µM | TGI [44]: > 50 µM | GI50 [45]: > 50 µM | TGI [45]: > 50 µM | GI50 [46]: > 50 µM | TGI [46]: > 50 µM | GI50 [47]: 30.8 µM | TGI [47]: > 50 µM | GI50 [48]: 7.88 µM | TGI [48]: 19.9 µM | GI50 [49]: 19.1 µM | TGI [49]: > 50 µM | GI50 [50]: > 50 µM | TGI [50]: > 50 µM | GI50 [51]: > 50 µM | TGI [51]: > 50 µM | GI50 [52]: 15 µM | TGI [52]: > 50 µM | GI50 [53]: 26 µM | TGI [53]: > 50 µM | GI50 [54]: > 50 µM | TGI [54]: > 50 µM | GI50 [55]: 32.2 µM | TGI [55]: > 50 µM | GI50 [56]: > 50 µM | TGI [56]: > 50 µM
